Results: ChEMBL document CHEMBL1137656, “Effects of serum on in vitro susceptibility testing of echinocandins” (Antimicrob Agents Chemother, 2007)
Numbered stars: 1 amine (or outer) side, 2 acyl side, 3 side chain; on linkers, the order of the positions; unused ones are H or OH. Bridge positions count the residues as written; N and C are the ends. Square brackets hold non-standard residues; d marks the D form. Peptide text beside a SMILES is read from it. * marks the point of attachment. hTyr(3S-OH,4S-OH,3'-OSO3H) = N[C@H](C(=O)O)[C@H](O)[C@@H](O)c1ccc(O)c(OS(=O)(=O)O)c1; pTerphenylCO(4''-OnC5H11) = CCCCCOc1ccc(-c2ccc(-c3ccc(C(=O)*)cc3)cc2)cc1; Orn(4R-OH,5R-OH) = O=C([C@H](C[C@@H](O)[C@@H](O)N[*:3])N[*:1])[*:2]; hTyr(3S-OH,4S-OH) = N[C@H](C(=O)O)[C@H](O)[C@@H](O)c1ccc(O)cc1; Pro(3S-OH,4S-Me) = C[C@H]1CN[C@H](C(=O)O)[C@H]1O; X1 = CCCCCOc1ccc(-c2cc(-c3ccc(C(=O)*)cc3)no2)cc1; Gln(3R-OH) = NC(=O)C[C@@H](O)[C@H](N)C(=O)O; Hyp = O=C(O)[C@@H]1C[C@@H](O)CN1

Legend:
Assay type in all cases: functional
Candida parapsilosis [1] = assay: Antifungal activity against Candida parapsilosis isolate 0036-030 after 24 hrs by CLSI M27-A2 broth microdilution method in presence of RPMI 1640 medium; conditions: Lodderomyces parapsilosis, isolate 0036-030, 24 h
Candida albicans [2] = assay: Ratio of MIC50 for Candida albicans isolate 0021-076 in presence of 50% human serum to MIC50 for Candida albicans isolate 0021-076 in presence of RPMI 1640 medium
Aspergillus fumigatus [3] = assay: Antifungal activity against Aspergillus fumigatus isolate 0002-021 after 24 hrs by CLSI M38-A broth microdilution method in presence of RPMI 1640 medium; conditions: isolate 0002-021, 24 h
Aspergillus flavus [4] = assay: Antifungal activity against Aspergillus flavus isolate 0001-033 after 24 hrs by CLSI M38-A broth microdilution method in presence of RPMI 1640 medium; conditions: isolate 0001-033, 24 h
Aspergillus terreus [5] = assay: Antifungal activity against Aspergillus terreus isolate 0031-087 after 48 hrs by CLSI M38-A broth microdilution method in presence of RPMI 1640 medium; conditions: isolate 0031-087, 48 h
Pichia kudriavzevii [6] = assay: Antifungal activity against Candida krusei isolate 0001-058 after 24 hrs by CLSI M27-A2 broth microdilution method in presence of RPMI 1640 medium; conditions: isolate 0001-058, 24 h
Candida albicans [7] = assay: Antifungal activity against Candida albicans isolate 0021-076 after 24 hrs by CLSI M27-A2 broth microdilution method in presence of RPMI 1640 medium; conditions: isolate 0021-076, 24 h
Pichia kudriavzevii [8] = assay: Ratio of MIC50 for Candida krusei ATCC 6258 in presence of 50% human serum to MIC50 for Candida krusei ATCC 6258 in presence of RPMI 1640 medium
Pichia kudriavzevii [9] = assay: Ratio of MIC50 for Candida krusei isolate 0013-054 in presence of 50% human serum to MIC50 for Candida krusei isolate 0013-054 in presence of RPMI 1640 medium
Aspergillus flavus [10] = assay: Antifungal activity against Aspergillus flavus isolate 0001-061 after 24 hrs by CLSI M38-A broth microdilution method in presence of 50% human serum; conditions: isolate 0001-061, 24 h
Nakaseomyces glabratus [11] = assay: Antifungal activity against Candida glabrata isolate 0049-038 after 24 hrs by CLSI M27-A2 broth microdilution method in presence of 50% human serum; conditions: isolate 0049-038, 24 h
Aspergillus fumigatus [12] = assay: Antifungal activity against Aspergillus fumigatus isolate 0002-0016 after 24 hrs by CLSI M38-A broth microdilution method in presence of RPMI 1640 medium; conditions: isolate 0002-0016, 24 h
Candida tropicalis [13] = assay: Antifungal activity against Candida tropicalis isolate 0022-021 after 24 hrs by CLSI M27-A2 broth microdilution method in presence of RPMI 1640 medium; conditions: isolate 0022-021, 24 h
Aspergillus terreus [14] = assay: Antifungal activity against Aspergillus terreus isolate 0031-087 after 48 hrs by CLSI M38-A broth microdilution method in presence of 50% human serum; conditions: isolate 0031-087, 48 h
Clavispora lusitaniae [15] = assay: Ratio of MIC50 for Candida lusitaniae isolate 0015-049 in presence of 50% human serum to MIC50 for Candida lusitaniae isolate 0015-049 in presence of RPMI 1640 medium
Candida tropicalis [16] = assay: Antifungal activity against Candida tropicalis isolate 0022-021 after 24 hrs by CLSI M27-A2 broth microdilution method in presence of 50% human serum; conditions: isolate 0022-021, 24 h
Aspergillus fumigatus [17] = assay: Antifungal activity against Aspergillus fumigatus isolate 0002-020 after 24 hrs by CLSI M38-A broth microdilution method in presence of RPMI 1640 medium; conditions: isolate 0002-020, 24 h
Aspergillus fumigatus [18] = assay: Antifungal activity against Aspergillus fumigatus isolate 0020-018 after 24 hrs by CLSI M38-A broth microdilution method in presence of RPMI 1640 medium; conditions: isolate 0020-018, 24 h
Clavispora lusitaniae [19] = assay: Antifungal activity against Candida lusitaniae isolate 0015-049 after 24 hrs by CLSI M27-A2 broth microdilution method in presence of RPMI 1640 medium; conditions: isolate 0015-049, 24 h
Candida parapsilosis [20] = assay: Ratio of MIC50 for Candida parapsilosis isolate 0026-003 in presence of 50% human serum to MIC50 for Candida parapsilosis isolate 0026-003 in presence of RPMI 1640 medium
Candida parapsilosis [21] = assay: Ratio of MIC50 for Candida parapsilosis isolate 0036-030 in presence of 50% human serum to MIC50 for Candida parapsilosis isolate 0036-030 in presence of RPMI 1640 medium
Aspergillus fumigatus [22] = assay: Ratio of MIC50 for Aspergillus fumigatus isolate 0002-0016 in presence of 50% human serum to MIC50 for Aspergillus fumigatus isolate 0002-0016 in presence of RPMI 1640 medium
Candida tropicalis [23] = assay: Ratio of MIC50 for Candida tropicalis isolate 0050-028 in presence of 50% human serum to MIC50 for Candida tropicalis isolate 0050-028 in presence of RPMI 1640 medium
Nakaseomyces glabratus [24] = assay: Ratio of MIC50 for Candida glabrata isolate 0049-038 in presence of 50% human serum to MIC50 for Candida glabrata isolate 0049-038 in presence of RPMI 1640 medium
Aspergillus niger = assay: Antifungal activity against Aspergillus niger isolate 0001-073 after 24 hrs by CLSI M38-A broth microdilution method in presence of RPMI 1640 medium; conditions: isolate 0001-073, 24 h
Candida tropicalis [25] = assay: Ratio of MIC50 for Candida tropicalis isolate 0022-021 in presence of 50% human serum to MIC50 for Candida tropicalis isolate 0022-021 in presence of RPMI 1640 medium
Aspergillus flavus [26] = assay: Ratio of MIC50 for Aspergillus flavus isolate 0001-033 in presence of 50% human serum to MIC50 for Aspergillus flavus isolate 0001-033 in presence of RPMI 1640 medium
Aspergillus flavus [27] = assay: Antifungal activity against Aspergillus flavus isolate 0001-061 after 24 hrs by CLSI M38-A broth microdilution method in presence of RPMI 1640 medium; conditions: isolate 0001-061, 24 h
Pichia kudriavzevii [28] = assay: Ratio of MIC50 for Candida krusei isolate 0001-058 in presence of 50% human serum to MIC50 for Candida krusei isolate 0001-058 in presence of RPMI 1640 medium
Candida tropicalis [29] = assay: Antifungal activity against Candida tropicalis isolate 0050-028 after 24 hrs by CLSI M27-A2 broth microdilution method in presence of 50% human serum; conditions: isolate 0050-028, 24 h
Aspergillus fumigatus [30] = assay: Ratio of MIC50 for Aspergillus fumigatus isolate […] in presence of 50% human serum to MIC50 for Aspergillus fumigatus isolate 0020-018 in presence of RPMI 1640 medium
Candida parapsilosis [31] = assay: Ratio of MIC50 for Candida parapsilosis isolate 0011-013 in presence of 50% human serum to MIC50 for Candida parapsilosis isolate 0011-013 in presence of RPMI 1640 medium

Row | Structure (SMILES) | MIC50 (Candida parapsilosis [1]) | Ratio (Candida albicans [2]) | MIC50 (Aspergillus fumigatus [3]) | MIC50 (Aspergillus flavus [4]) | MIC50 (Aspergillus terreus [5]) | MIC50 (Pichia kudriavzevii [6]) | MIC50 (Candida albicans [7]) | Ratio (Pichia kudriavzevii [8]) | Ratio (Pichia kudriavzevii [9]) | MIC50 (Aspergillus flavus [10]) | MIC50 (Nakaseomyces glabratus [11]) | MIC50 (Aspergillus fumigatus [12]) | MIC50 (Candida tropicalis [13]) | MIC50 (Aspergillus terreus [14]) | Ratio (Clavispora lusitaniae [15]) | MIC50 (Candida tropicalis [16]) | MIC50 (Aspergillus fumigatus [17]) | MIC50 (Aspergillus fumigatus [18]) | MIC50 (Clavispora lusitaniae [19]) | Ratio (Candida parapsilosis [20]) | further results
1 | CC[C@H](C)C[C@H](C)CCCCCCCCC(=O)N[C@H]1C[C@@H](O)[C@@H](NCCN)NC(=O)[C@@H]2[C@@H](O)CCN2C(=O)[C@H]([C@H](O)CCN)NC(=O)[C@H]([C@H](O)[C@@H](O)c2ccc(O)cc2)NC(=O)[C@@H]2C[C@@H](O)CN2C(=O)[C@H]([C@@H](C)O)NC1=O [CASPOFUNGIN] | 1 µg/mL | 8 | 1 µg/mL | 32 µg/mL | 0.5 µg/mL | 0.5 µg/mL | 0.5 µg/mL | 8 | 4 | 128 µg/mL | 0.5 µg/mL | 8 µg/mL | 0.5 µg/mL | 0.5 µg/mL | 2 | 0.5 µg/mL | 0.5 µg/mL | 16 µg/mL | 0.5 µg/mL | 8 | Ratio (Candida parapsilosis [21]): 8; Ratio (Aspergillus fumigatus [22]): 16; Ratio (Candida tropicalis [23]): 4; Ratio (Nakaseomyces glabratus [24]): 1; MIC50 (Aspergillus niger): 0.0004 µg/mL; Ratio (Candida tropicalis [25]): 1; Ratio (Aspergillus flavus [26]): 4; MIC50 (Aspergillus flavus [27]): 128 µg/mL; Ratio (Pichia kudriavzevii [28]): 1; MIC50 (Candida tropicalis [29]): 2 µg/mL; Ratio (Aspergillus fumigatus [30]): 8; Ratio (Candida parapsilosis [31]): 4
2 | CCCCCOc1ccc(-c2cc(-c3ccc(C(=O)N[C@H]4C[C@@H](O)[C@@H](O)NC(=O)[C@@H]5[C@@H](O)[C@@H](C)CN5C(=O)[C@H]([C@H](O)CC(N)=O)NC(=O)[C@H]([C@H](O)[C@@H](O)c5ccc(O)c(OS(=O)(=O)O)c5)NC(=O)[C@@H]5C[C@@H](O)CN5C(=O)[C@H]([C@@H](C)O)NC4=O)cc3)no2)cc1 [MICAFUNGIN] (X1-[Orn(4R-OH,5R-OH)]T[Hyp][hTyr(3S-OH,4S-OH,3'-OSO3H)][Gln(3R-OH)][Pro(3S-OH,4S-Me)]; lactam 1-C) | 0.5 µg/mL | 128 | 0.001 µg/mL | 0.125 µg/mL | 0.002 µg/mL | 0.0625 µg/mL | 0.5 µg/mL | 128 | 64 | 128 µg/mL | 1 µg/mL | 0.0313 µg/mL | 0.0156 µg/mL | 0.25 µg/mL | 256 | 2 µg/mL | 0.004 µg/mL | 0.0156 µg/mL | 0.0156 µg/mL | 128 | Ratio (Candida parapsilosis [21]): 256; Ratio (Aspergillus fumigatus [22]): 64; Ratio (Candida tropicalis [23]): 128; Ratio (Nakaseomyces glabratus [24]): 256; MIC50 (Aspergillus niger): 0.002 µg/mL; Ratio (Candida tropicalis [25]): 128; Ratio (Aspergillus flavus [26]): 1024; MIC50 (Aspergillus flavus [27]): 0.125 µg/mL; Ratio (Pichia kudriavzevii [28]): 32; MIC50 (Candida tropicalis [29]): 32 µg/mL; Ratio (Aspergillus fumigatus [30]): 32; Ratio (Candida parapsilosis [31]): 256
3 | CCCCCOc1ccc(-c2ccc(-c3ccc(C(=O)N[C@H]4C[C@@H](O)[C@@H](O)NC(=O)[C@@H]5[C@@H](O)[C@@H](C)CN5C(=O)[C@H]([C@@H](C)O)NC(=O)[C@H]([C@H](O)[C@@H](O)c5ccc(O)cc5)NC(=O)[C@@H]5C[C@@H](O)CN5C(=O)[C@H]([C@@H](C)O)NC4=O)cc3)cc2)cc1 [ANIDULAFUNGIN] ({pTerphenylCO(4''-OnC5H11)}-[Orn(4R-OH,5R-OH)]T[Hyp][hTyr(3S-OH,4S-OH)]T[Pro(3S-OH,4S-Me)]; lactam 1-C) | 1 µg/mL | 256 | 0.002 µg/mL | 4 µg/mL | 0.0156 µg/mL | 0.0313 µg/mL | 0.5 µg/mL | 16 | 32 | 128 µg/mL | 2 µg/mL | 2 µg/mL | 0.0156 µg/mL | 0.25 µg/mL | 8 | 2 µg/mL | 0.008 µg/mL | 0.5 µg/mL | 0.125 µg/mL | 64 | Ratio (Candida parapsilosis [21]): 128; Ratio (Aspergillus fumigatus [22]): 64; Ratio (Candida tropicalis [23]): 128; Ratio (Nakaseomyces glabratus [24]): 32; MIC50 (Aspergillus niger): 0.001 µg/mL; Ratio (Candida tropicalis [25]): 128; Ratio (Aspergillus flavus [26]): 32; MIC50 (Aspergillus flavus [27]): 4 µg/mL; Ratio (Pichia kudriavzevii [28]): 32; MIC50 (Candida tropicalis [29]): 128 µg/mL; Ratio (Aspergillus fumigatus [30]): 256; Ratio (Candida parapsilosis [31]): 64
